From PubChem BioAssay AID248 (DTP/NCI, 2004)
Where “and” joins values, the source holds several entries; their conditions need not be identical. Equal entries are not always repeated. Toxic doses and inconclusive results are not listed. No stated cut-off is given here; in the data, active means T/C of 150% or more; inactive means T/C below 125%.

Tested on: L1210 leukemia ip in BDF1 mice, survival T/C
Assay: NCI In Vivo Anticancer Drug Screen. Data for tumor model L1210 Leukemia (intraperitoneal) in B6D2F1 (BDF1) mice
Details: endpoint: mean survival time, higher = longer survival
Procedure, shortened: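 Transplanted-tumor mice were given test agent; controls received vehicle only. Survival readings from the two groups were divided (treated over control).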

[1] = dose: 100.0 mg/kg/injection, schedule: Q04DX002 (ip), vehicle: saline with Tween-80
[2] = dose: 200.0 mg/kg/injection, schedule: Q04DX002 (ip), vehicle: saline with Tween-80
[3] = dose: 400.0 mg/kg/injection, schedule: Q04DX002 (ip), vehicle: saline with Tween-80
[4] = dose: 100.0 mg/kg/injection, schedule: Q01DX009 (ip), vehicle: saline with Tween-80
[5] = dose: 200.0 mg/kg/injection, schedule: Q01DX009 (ip), vehicle: saline with Tween-80
[6] = dose: 100.0 mg/kg/injection, schedule: Q04DX003 (ip), vehicle: saline
[7] = dose: 200.0 mg/kg/injection, schedule: Q04DX003 (ip), vehicle: saline
[8] = dose: 400.0 mg/kg/injection, schedule: Q04DX003 (ip), vehicle: saline
[9] = dose: 100.0 mg/kg/injection, schedule: Q04DX003 (ip), vehicle: saline with Tween-80
[10] = dose: 200.0 mg/kg/injection, schedule: Q04DX003 (ip), vehicle: saline with Tween-80
[11] = dose: 400.0 mg/kg/injection, schedule: Q04DX003 (ip), vehicle: saline with Tween-80
[12] = dose: 100.0 mg/kg/injection, schedule: Q01DX001 (ip), vehicle: Klucel (hydroxypropylcellulose) (HPC)
[13] = dose: 200.0 mg/kg/injection, schedule: Q01DX001 (ip), vehicle: Klucel (hydroxypropylcellulose) (HPC)
[14] = dose: 400.0 mg/kg/injection, schedule: Q01DX001 (ip), vehicle: Klucel (hydroxypropylcellulose) (HPC)
[15] = dose: 100.0 mg/kg/injection, schedule: Q01DX001 (ip), vehicle: saline
[16] = dose: 200.0 mg/kg/injection, schedule: Q01DX001 (ip), vehicle: saline
[17] = dose: 100.0 mg/kg/injection, schedule: Q01DX001 (ip), vehicle: saline with Tween-80
[18] = dose: 200.0 mg/kg/injection, schedule: Q01DX001 (ip), vehicle: saline with Tween-80
[19] = dose: 50.0 mg/kg/injection, schedule: Q01DX009 (ip), vehicle: Klucel (hydroxypropylcellulose) (HPC)
[20] = dose: 100.0 mg/kg/injection, schedule: Q01DX009 (ip), vehicle: Klucel (hydroxypropylcellulose) (HPC)
[21] = dose: 200.0 mg/kg/injection, schedule: Q01DX009 (ip), vehicle: Klucel (hydroxypropylcellulose) (HPC)
[22] = dose: 400.0 mg/kg/injection, schedule: Q01DX001 (ip), vehicle: saline
[23] = dose: 100.0 mg/kg/injection, schedule: Q04DX003 (ip), vehicle: Klucel (hydroxypropylcellulose) (HPC)
[24] = dose: 200.0 mg/kg/injection, schedule: Q04DX003 (ip), vehicle: Klucel (hydroxypropylcellulose) (HPC)
[25] = dose: 400.0 mg/kg/injection, schedule: Q04DX003 (ip), vehicle: Klucel (hydroxypropylcellulose) (HPC)

Measured: T/C

CC(O)c1cccc(Br)c1 (stereo unspecified)
inactive: [1] 100 % of control | [2] 90 % of control | [3] 90 % of control

Cc1ccc(S(=O)(=O)Nc2ccccc2)c(CC(O)(c2ccccc2)c2ccccc2)c1
inactive: dose: 50.0 mg/kg/injection, schedule: Q01DX009 (ip), vehicle: saline with Tween-80 93 % of control | [4] 86 % of control | [5] 93 % of control

O=C(NCOC(c1ccccc1)c1ccccc1)c1cccnc1
inactive: [6] 89 % of control | [7] 86 % of control | [8] 92 % of control

C1=CC2C3C=CC(CC3)C2CC1 (stereo unspecified)
inactive: [9] 106 % of control | [10] 97 % of control | [11] 87 % of control

CNc1ccccc1CCc1ccccc1CO
inactive: dose: 400.0 mg/kg/injection, schedule: Q04DX002 (ip), vehicle: Klucel (hydroxypropylcellulose) (HPC) 89 % of control

NCC(=O)NO
inactive: dose: 75.0 mg/kg/injection, schedule: Q01DX009 (ip), vehicle: saline 99 % of control | dose: 90.0 mg/kg/injection, schedule: Q01DX015 (ip), vehicle: water 92 % of control | [6] 108 % of control | dose: 133.0 mg/kg/injection, schedule: Q01DX015 (ip), vehicle: water 94 % of control | dose: 150.0 mg/kg/injection, schedule: Q01DX009 (ip), vehicle: saline 99 % of control | dose: 200.0 mg/kg/injection, schedule: Q01DX015 (ip), vehicle: water 94 % of control | [7] 106 % of control | dose: 300.0 mg/kg/injection, schedule: Q01DX009 (ip), vehicle: saline 92 % of control | [8] 98 % of control

CC[C@H](CC[C@@H](C)[C@H]1CC[C@H]2[C@@H]3CC[C@H]4C[C@@H](O)CC[C@]4(C)[C@H]3CC[C@]12C)C(C)C
inactive: dose: 100.0 mg/kg/injection, schedule: Q01DX001 (ip), vehicle: water 90 % of control | dose: 200.0 mg/kg/injection, schedule: Q01DX001 (ip), vehicle: water 91 % of control | dose: 400.0 mg/kg/injection, schedule: Q01DX001 (ip), vehicle: water 93 % of control

CCCCCCCCCCCCC(CCCCCCCCCCCC)c1ccccc1
inactive: [12] 112 % of control | [13] 100 % of control | [14] 96 % of control

Cc1ccc2nc(Cl)cc(=O)n2c1
inactive: dose: 50.0 mg/kg/injection, schedule: Q01DX001 (ip), vehicle: saline 97 % of control | [15] 97 % of control | [16] 97 % of control

CCOC(=O)C(C#N)C(C)(C[N+](=O)[O-])C1CC1 (stereo unspecified)
inactive: dose: 0.78 mg/kg/injection, schedule: Q04DX003 (ip), vehicle: saline with Tween-80 96 % of control | dose: 1.56 mg/kg/injection, schedule: Q04DX003 (ip), vehicle: saline with Tween-80 101 % of control | dose: 3.13 mg/kg/injection, schedule: Q04DX003 (ip), vehicle: saline with Tween-80 97 % of control

CNCCCN1c2ccccc2C(C)(C)c2ccccc21
inactive: [15] 97 % of control

CC(C)CCOC(=O)c1ccccc1OC(=O)Nc1ccc(Cl)cc1[N+](=O)[O-]
inactive: [17] 102 % of control | [4] 99 % of control and 89 % of control | [1] 94 % of control and 103 % of control | [9] 91 % of control | [18] 90 % of control | [5] 86 % of control and 89 % of control | [2] 97 % of control and 88 % of control | [10] 91 % of control | dose: 400.0 mg/kg/injection, schedule: Q01DX001 (ip), vehicle: saline with Tween-80 88 % of control | dose: 400.0 mg/kg/injection, schedule: Q01DX009 (ip), vehicle: saline with Tween-80 89 % of control | [3] 100 % of control and 104 % of control | [11] 99 % of control

CCOC(=O)c1nnc(-c2ccccc2)[nH]c1=O
inactive: [19] 92 % of control | [20] 103 % of control | [21] 103 % of control

Nc1ccc2c(c1)Cc1cc(NC=O)ccc1-2
inactive: dose: 100.0 mg/kg/injection, schedule: Q01DX001 (ip), vehicle: carboxymethylcellulose (CMC) 101 % of control | dose: 200.0 mg/kg/injection, schedule: Q01DX001 (ip), vehicle: carboxymethylcellulose (CMC) 97 % of control | dose: 400.0 mg/kg/injection, schedule: Q01DX001 (ip), vehicle: carboxymethylcellulose (CMC) 92 % of control

CC1=CC(=O)C=CC1(C)C
inactive: [12] 100 % of control | [20] 94 % of control | [13] 100 % of control | [21] 94 % of control | [14] 108 % of control

CCCCCCCCCCCCCCCCC(C)(O)C#CC(C)(O)CCCCCCCCCCCCCCCC (stereo unspecified)
inactive: dose: 100.0 mg/kg/injection, schedule: Q01DX009 (ip), vehicle: other 101 % of control | [1] 101 % of control | dose: 200.0 mg/kg/injection, schedule: Q01DX009 (ip), vehicle: other 97 % of control | [2] 90 % of control | dose: 400.0 mg/kg/injection, schedule: Q01DX009 (ip), vehicle: other 101 % of control | [3] 97 % of control

CCCCCC1(C=O)C(=O)NC(=O)N1C (stereo unspecified)
inactive: [15] 102 % of control | [16] 93 % of control | [22] 87 % of control

CCC(O)(c1ccccc1)c1cnc(C)n1Cc1ccccc1 (stereo unspecified)
inactive: [17] 100 % of control and 108 % of control | dose: 100.0 mg/kg/injection, schedule: Q04DX002 (ip), vehicle: Klucel (hydroxypropylcellulose) (HPC) 102 % of control | [1] 93 % of control and 105 % of control | [9] 101 % of control | [18] 107 % of control and 91 % of control | dose: 200.0 mg/kg/injection, schedule: Q04DX002 (ip), vehicle: Klucel (hydroxypropylcellulose) (HPC) 112 % of control | [2] 88 % of control and 91 % of control | [10] 100 % of control | [3] 88 % of control and 90 % of control

CCNC(C)(C)C(=O)c1ccc(Cl)s1
inactive: [4] 96 % of control | [9] 100 % of control | [5] 96 % of control | [10] 100 % of control | [11] 98 % of control

O=[N+]([O-])c1ccc(S(=O)CCl)cc1 (stereo unspecified)
inactive: [23] 98 % of control | [24] 105 % of control

Nc1nc2nc(-c3ccc([N+](=O)[O-])cc3)nc(N)c2nc1-c1ccc(N(CCO)CCO)cc1
inactive: [15] 90 % of control | [16] 95 % of control | [22] 95 % of control

CC(=O)OCC1OC2OC(C)(C)OC2C1NC(=O)N(C)C(C)=O (stereo unspecified)
inactive: dose: 100.0 mg/kg/injection, schedule: Q04DX002 (ip), vehicle: saline 87 % of control | dose: 200.0 mg/kg/injection, schedule: Q04DX002 (ip), vehicle: saline 103 % of control | dose: 400.0 mg/kg/injection, schedule: Q04DX002 (ip), vehicle: saline 90 % of control

Nc1nc(N)nc(CCP(CCc2nc(N)nc(N)n2)CCc2nc(N)nc(N)n2)n1
inactive: dose: 25.0 mg/kg/injection, schedule: Q01DX009 (ip), vehicle: Klucel (hydroxypropylcellulose) (HPC) 110 % of control | [19] 108 % of control | [20] 104 % of control | [23] 110 % of control and 113 % of control | [24] 98 % of control and 100 % of control | [25] 101 % of control

Brc1ccc(C=C2c3ccccc3-c3ccccc32)cc1
inactive: [20] 100 % of control | [23] 96 % of control | [21] 97 % of control | [24] 97 % of control | dose: 400.0 mg/kg/injection, schedule: Q01DX009 (ip), vehicle: Klucel (hydroxypropylcellulose) (HPC) 100 % of control | [25] 94 % of control
